Assay results reported in US9340493B2, “Hydroxamic acid derivatives useful as antibacterial agents” (Pfizer Inc., priority 2008, dated 2016).
Converted amounts (≈) assume the structure as drawn.

Assays:
[1] = tested on: Acinetobacter baumanii/haemolyticus; test: MIC determination, A. baumanii/haemolyticus; format: cell-based; conditions: Acinetobacter baumannii; multidrug-resistant clinical isolate; * = arithmetic mean of 2-6 MIC determinations; read-out: MIC (ug/mL) A. baumanii/haemolyticus
Description: (§1) MIC determinations: The in vitro antibacterial activity of compounds described in the Examples was evaluated by minimum inhibitory concentration (MIC) testing according to Clinical and Laboratory Standards Institute (CLSI, formerly NCCLS) guidelines. See: Clinical and Laboratory Standards Institute. Methods for Dilution Antimicrobial Susceptibility Tests for Bacteria that Grow Aerobically; Approved Standard-Seventh Edition. CLSI document M7-A7 [ISBN 1-56238-587-9]. Clinical and Laboratory Standards Institute, 940 West Valley Road, Suite 1400, Wayne, Pa. 19087-1898 USA, 2006; also Clinical and Laboratory Standards Institute. Performance Standards for Antimicrobial Susceptibility Testing; Eighteenth Informational Supplement. CLSI document M100-S18 [ISBN1-56238-653-0]. Clinical and Laboratory Standards Institute.
(§2) The following bacterial strains were used:
Acinetobacter baumanii/haemolyticus: Multidrug-resistant clinical isolate;

[2] = tested on: Enterobacter aerogenes; test: MIC determination, E. aerogenes; format: cell-based; conditions: Klebsiella aerogenes; quinolone-resistant, ESBL-expressing clinical isolate; * = arithmetic mean of 2-6 MIC determinations; read-out: MIC (ug/mL) E. aerogenes
Description: as §1, §2
Enterobacter aerogenes: Quinolone-resistant isolate, expresses extended-spectrum beta-lactamases (ESBL), clinical isolate;

[3] = tested on: Klebsiella pneumoniae; test: MIC determination, K. pneumoniae; format: cell-based; conditions: ciprofloxacin-resistant, ESBL-expressing clinical isolate, * = arithmetic mean of 2-6 MIC determinations, read-out: MIC (ug/mL) K. pneumoniae
Description: as §1, §2
Klebsiella pneumoniae: Ciprofloxacin-resistant isolate, expresses extended-spectrum beta-lactamases (ESBL), clinical isolate;

[4] = tested on: Escherichia coli EC-1; test: MIC determination, E. coli EC-1; format: cell-based; conditions: EC1, EC-1: VOGEL, * = arithmetic mean of 2-6 MIC determinations, read-out: MIC (ug/mL) E. coli EC-1
Description: as §1, §2
Escherichia coli EC-1: VOGEL;

[5] = tested on: P. aeruginosa PAO280; test: MIC determination, P. aeruginosa PAO280; format: cell-based; conditions: Pseudomonas aeruginosa, PAO280, read-out: MIC (ug/mL) P. aeruginosa PAO280
Description: as §1, §2
Pseudomonas aeruginosa PA0280: lacks efflux pumps MexAB-oprM, MexXY and MexZ

[6] = tested on: P. aeruginosa UI-18; test: MIC determination, P. aeruginosa UI-18; format: cell-based; conditions: Pseudomonas aeruginosa, UI18; wild-type; * = arithmetic mean of 2-6 MIC determinations; read-out: MIC (ug/mL) P. aeruginosa UI-18
Description: as §1, §2
P. aeruginosa UI-18: Wild-type;

[7] = tested on: Staphylococcus aureus ATCC 29213; test: MIC determination, S. aureus ATCC 29213; format: cell-based; conditions: ATCC29213, CLSI quality control reference strain, * = arithmetic mean of 2-6 MIC determinations, read-out: MIC (ug/mL) S. aureus ATCC 29213
Description: as §1, §2
Staphylococcus aureus ATCC 29213: CLSI quality control reference strain; and […]

[8] = molecular target: T1, Pseudomonas aeruginosa LpxC enzyme (Pseudomonas aeruginosa, UniProt P47205); test: IC50 assay, LpxC enzyme from P. aeruginosa; format: biochemical; conditions: 0.5 nM enzyme, 25° C., pH 8.0, 20 min; ** = average of 2-8 assays
T1 construct: made in house; host or cells: E. coli
T1 sequence (P47205 1-303): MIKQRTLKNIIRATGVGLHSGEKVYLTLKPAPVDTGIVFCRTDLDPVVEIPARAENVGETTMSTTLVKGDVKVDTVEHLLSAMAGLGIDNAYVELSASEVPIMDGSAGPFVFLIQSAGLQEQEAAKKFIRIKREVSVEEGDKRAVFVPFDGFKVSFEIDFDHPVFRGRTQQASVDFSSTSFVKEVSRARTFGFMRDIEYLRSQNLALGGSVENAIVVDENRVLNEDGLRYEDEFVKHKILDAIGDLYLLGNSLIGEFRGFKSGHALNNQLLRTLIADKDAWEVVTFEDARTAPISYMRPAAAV
Description: IC50 assay, LpxC enzyme from P. aeruginosa: IC50 determination in the LpxC enzyme assay was carried out in a similar manner to that described by S. A. Hyland et al., J. Bacteriology 1997, 179, 2029-2037. [See also T. Kline et al., J. Medicinal Chemistry 2002, 45, 3112-3129.] Briefly, Pseudomonas aeruginosa LpxC enzyme (0.5 nM) purified from E. coli-overexpressing bacteria was incubated at 25° C. in a final volume of 25 ul containing 0.5 uM UDP-3-O—(R-3-hydroxydecanoyl)-N—[^3H-acetyl]glucosamine (B. D. Maxwell and J. C. Bronstein, J. Labeled Compounds and Radiopharmaceuticals 2005, 48, 1049-1054), 1 mg/ml BSA, and 50 mM sodium phosphate buffer, pH 8.0 in the presence and absence of inhibitor compound. At the end of 20 min, 90 ul of a pre-mixed 3% suspension of activated charcoal in 100 mM sodium acetate, pH 7.5, was added to stop the enzyme reaction. The contents of the well were transferred to a filter plate and filtered, and an aliquot of the filtrate was quantitated by liquid scintillation spectrometry. A no-enzyme control was subtracted in order to eliminate background counts.

| SMILES | MIC [1] | MIC [2] | MIC [3] | MIC [4] | MIC [5] | MIC [6] | MIC [7] | IC50 [8] |
| --- | --- | --- | --- | --- | --- | --- | --- | --- |
| CNC(=O)C(C)(OCc1ccc(-c2ccc(-c3cc(CO)no3)cc2)cc1)C(=O)NO (stereo not shown) [Example 49, N-hydroxy-2-({4′-[3-(hydroxymethyl)isoxazol-5-yl]biphenyl-4-yl}methoxy)-N′,2-dimethylmalonamide] | > 16 µg/mL | > 16 µg/mL | > 16 µg/mL | 8 µg/mL (≈ 18.8 µM) | 0.045 µg/mL (≈ 0.106 µM) | 2 µg/mL (≈ 4.7 µM) | > 16 µg/mL | 0.00175 µM |
| C[C@@](OCc1ccc(-c2ccccc2)cc1)(C(=O)NO)[C@@H](O)c1cc(S(C)(=O)=O)on1 [Example 43, (2S,3S)-2-(biphenyl-4-ylmethoxy)-N,3-dihydroxy-2-methyl-3-[5-(methylsulfonyl)isoxazol-3-yl]propanamide] | 64 µg/mL (≈ 143 µM) | 64 µg/mL (≈ 143 µM) | 16 µg/mL (≈ 35.8 µM) | 4 µg/mL (≈ 8.96 µM) | 0.03 µg/mL (≈ 0.0672 µM) | 2 µg/mL (≈ 4.48 µM) | 64 µg/mL (≈ 143 µM) | 0.000686 µM |
| C[C@@](OCc1ccc(-c2ccccc2)cc1)(C(=O)NO)[C@@H](O)c1ccon1 [Example 31, (2S,3S)-2-(biphenyl-4-ylmethoxy)-N,3-dihydroxy-3-isoxazol-3-yl-2-methylpropanamide] | 32 µg/mL (≈ 86.9 µM) | > 64 µg/mL | 48 µg/mL (≈ 130 µM) | 16 µg/mL (≈ 43.4 µM) | 0.06 µg/mL (≈ 0.163 µM) | 6 µg/mL (≈ 16.3 µM) | > 64 µg/mL | 0.000406 µM |
| CC(OCc1ccc(-c2ccccc2)cc1)(C(=O)NO)C1(O)CCC1 (stereo not shown) [Example 48, 2-(biphenyl-4-ylmethoxy)-N-hydroxy-2-(1-hydroxycyclobutyl)propanamide] | > 64 µg/mL | > 64 µg/mL | > 64 µg/mL | > 64 µg/mL | < 0.06 µg/mL | 16 µg/mL (≈ 46.9 µM) | > 64 µg/mL | 0.00623 µM |
| Cc1ccc(-c2ccc(CO[C@](C)(C(=O)NO)[C@@H](O)c3cc(C)on3)cc2)cc1 [Example 39, (2S,3S)-N,3-dihydroxy-2-methyl-2-[(4′-methylbiphenyl-4-yl)methoxy]-3-(5-methylisoxazol-3-yl)propanamide] | 4 µg/mL (≈ 10.1 µM) | 32 µg/mL (≈ 80.7 µM) | 4 µg/mL (≈ 10.1 µM) | 2 µg/mL (≈ 5.04 µM) | 0.03 µg/mL (≈ 0.0757 µM) | 1 µg/mL (≈ 2.52 µM) | > 64 µg/mL | 0.000589 µM |
| Cc1nc([C@H](O)[C@](C)(OCc2ccc(-c3ccccc3)cc2)C(=O)NO)c(C)o1 [Example 27, (2S,3S)-2-(biphenyl-4-ylmethoxy)-3-(2,5-dimethyl-1,3-oxazol-4-yl)-N,3-dihydroxy-2-methylpropanamide] | > 64 µg/mL | > 64 µg/mL | > 64 µg/mL | > 64 µg/mL | 16 µg/mL (≈ 40.4 µM) | > 64 µg/mL | > 64 µg/mL | 0.0652 µM |
| COCc1ccc([C@H](O)[C@](C)(OCc2ccc(-c3ccccc3)cc2)C(=O)NO)o1 [Example 24, (2S,3S)-2-(biphenyl-4-ylmethoxy)-N,3-dihydroxy-3-[5-(methoxymethyl)-2-furyl]-2-methylpropanamide] | > 64 µg/mL | > 64 µg/mL | > 64 µg/mL | > 64 µg/mL | 2 µg/mL (≈ 4.86 µM) | 32 µg/mL (≈ 77.8 µM) | > 64 µg/mL | 0.00128 µM |
| Cc1ccc(-c2ccc(CO[C@](C)(C(=O)NO)[C@@H](O)c3cc(CO)on3)cc2)nc1 [Example 40, (2S,3S)-N,3-dihydroxy-3-[5-(hydroxymethyl)isoxazol-3-yl]-2-methyl-2-{[4-(5-methylpyridin-2-yl)benzyl]oxy}propanamide] | > 64 µg/mL | > 64 µg/mL | > 64 µg/mL | > 64 µg/mL | 0.125 µg/mL (≈ 0.302 µM) | 16 µg/mL (≈ 38.7 µM) | > 64 µg/mL | 0.00081 µM |
